Measured values reported in patent US20080305059A1, “Skin lightening compositions and methods” (priority 2007, published 2008).

Tests used:
[1] = tested on: skin color of forearm test sites; experiment: Skin lightening efficacy on forearms, chromometric measurement of L value and ITA degree; assay type: in vivo, human; conditions: for ΔITA Degrees / ΔL Value: applied twice a day to forearm, 15 individuals, delta = percent change from baseline; for ΔITA Degrees / ΔL Value / adverse effects: 0.5% hexylresorcinol or 2% hydroquinone composition; for adverse effects: twice a day for eight weeks on forearms
Method: The composition was prepared by mixing the components of Phase A-1 until a substantially homogenous mixture was obtained and then dispersing that mixture in Phase A-2 with moderate agitation. The mixture was mixed until a homogeneous clear dispersion was obtained. Then, the components of Phase B were combined, mixed and heated to 75° C. and then added to the Phase A-1/A-2 mixture. The so formed mixture was homogenized for 2-3 minutes to obtain a substantially uniform composition. Phase C was added and mixed until uniform. After cooling down to 50° C., Phases D, E and F in the listed order were added and mixed and the final composition then cooled down to room temperature. […] A second skin lightening composition was prepared in the same manner with the same formulation except that the highly purified hexylresorcinol was replaced with 2% hydroquinone (Eastman) and water adjusted accordingly. Each of the skin lightening compositions was applied to different test sites on the forearms of fifteen individuals. The compositions were applied twice a day, morning and evening, for eight weeks. The test sites as well as untreated sites on each forearm were evaluated by a trained clinical evaluator for brightness of skin, evenness of skin tone, appearance of skin, dryness of skin and radiance of skin using a 10 point scale prior to the first application and following Week 4 and Week 8. Each test site was evaluated for skin color change as represented by the change in L values and ITA.degree (Individual Topology Angle—COLIPA SPF test method) as measured by chromometric measurement. ITA° was calculated using the formula: ITA°=[Arc Tangent(L*−50)/b*)]180/3.1416 Wherein, L*value—lightness and b*—color in blue-yellow axis. The results of the testing were as presented in Table 3, wherein the delta represents the percent change in skin color from the baseline coloration of the untreated skin.

[2] = tested on: skin of the infrascapular regions of the back; experiment: Skin sensitivity: repeat occlusive patch test (nine inductive patchings plus challenge); assay type: in vivo, human; conditions: 5% dilution in corn oil, 111 subjects
Method: Given the known sensitivity issues associated with commercial grade hexylresorcinol, evaluation of the skin sensitivity to the purified hexylresorcinol was also evaluated. Skin sensitivity was evaluated following the method cited in the reference Appraisal of the Safety of Chemicals in Food, Drugs and Cosmetics, published by The Association of Food and Drug Officials of The United States. The specific method employed used nine inductive patchings, not the ten cited in the reference, under occlusive patch conditions. Samples were prepared for evaluation by diluting the highly pure hexylresorcinol in corn oil to a 5% concentration, with dilutions freshly prepared on each application day. 0.2 ml of the diluted test material was dispensed onto occlusive, hypoallergenic patches and the treated patches applied directly to the skin of the infrascapular regions of the back, to the right or left of the midline of each subject: one hundred and eleven subjects were employed. […] If evidence of a reaction was found, the area of edema and/or erythema was then measured and recorded: edema being estimated by an evaluation of the skin with respect to the contour of the unaffected normal skin. […] The challenge or retest sites were monitored and scored 24 and 48 hours after application.

Structure (SMILES) | ΔITA Degrees ([1]; Week 4) [%] | ΔL Value ([1]; Week 4) [%] | ΔITA Degrees ([1]; Week 8) [%] | ΔL Value ([1]; Week 8) [%] | adverse effects [1] | change in skin color compared with the 2% hydroquinone composition ([1]; 0.5% composition, eight weeks twice a day) | primary irritation (edema or erythema) ([2]; 0.2 ml occlusive patch, nine 24 hour exposures) | sensitization after challenge patch ([2]; challenge after 10-14 day rest, scored 24 and 48 hours)
Oc1ccc(O)cc1 [Hydroquinone, hydroquinone, reference compound] | 27.66 | 3.24 | 39.38 | 4.27 | No adverse effects | – | – | –
CCCCCCc1ccc(O)cc1O [Hexylresorcinol, 4-Hexylresorcinol] | 27.48 | 3.4 | 37.56 | 4.67 | No adverse effects | comparable, statistically significant | NON-PRIMARY IRRITANT | NON-PRIMARY SENSITIZER
